# Results: patent US20080200412A1, “Astrocyte Elevated Gene-1 And Its Promoter In Treatments For Neurotoxicity And Malignancy” (priority 2005, published 2008)
# Assays:
# AEG-1 promoter [1] = assay: AEG-1 promoter luciferase reporter in THV/THR astrocytes; assay type: cell-based, human
# Text: (§1) Construction of plasmids: The full-length AEG-1 promoter DNA used in this analysis has a 3′ boundary 1 base-pair 5′ to the translation initiation site (ATG codon) of the AEG-1 gene (designated as nucleotide 1 in FIG. 7; SEQ ID NO:2) and extends 2759 bp upstream. The genomic DNA region corresponding to the AEG-1 promoter was isolated by PCR using the PCRx Enhancer System (Invitrogen, Carlsbad, Calif.) with forward primer: 5′-[…] -3′ (KpnI site underlined) (SEQ ID NO:4) and reverse primer: 5′-[…]-3′ (XhoI site underlined) 9SEQ ID NO:5). PCR conditions were as follows: Denaturation 95° C., 30 sec; annealing 55° C., 30 sec and extension 68° C., 3 min, repeated for 30 cycles. This region of genomic DNA was cloned into the luciferase reporter pGL-3 basic (Promega, Madison, Wis.) using restriction sites in KpnI and XhoI in the plasmid polylinker.
# (§2) Transient transfection and luciferase assay. CREF, CREF-ras, FM516, FM516-ras, THV and THR cells were plated on 24-well plates one day prior to transfection. […] Luciferase activity was measured and normalized against β-galactosidase activity produced by a co-transfected vector as described (17). […]
# (§3) Effect of inhibition of PI3 Kinase, MEK kinase and p38 MAP kinase on AEG-1 promoter activity. Signal transduction pathways impinging on or directly downstream of the RAS pathway were analyzed to determine their effect on AEG-1 promoter activity (FIGS. 13 A-E). […]
# AEG-1 promoter [2] = assay: AEG-1 promoter luciferase reporter in CREF and CREF-ras fibroblasts; assay type: cell-based, rat
# Text: as §1, §2, §3
# AEG-1 promoter [3] = assay: AEG-1 promoter luciferase reporter in C2 and C10 cell lines; assay type: cell-based, human
# Text: as §1
# Cell treatment with inhibitors. The PI3 kinase inhibitor LY294002, MEK inhibitor PD 98059 and p38 MAP Kinase inhibitor SB 203580 were used to treat cells at the indicated concentration and to determine the effect of inhibition of the respective pathway on AEG-1 promoter activity using the AEG-1 luciferase reporter.
# The colorectal cancer cell line HCT116 which is mutated in the k-RAS gene was also tested for AEG-1 promoter activity in addition to two related cell lines. […]
# EAAT2 promoter = settings: PHFA; cited from earlier work
# AEG-1 [4] = settings: PHFA, by 7-days; cited from earlier work
# AEG-1 [5] = assay: Western blot of AEG-1 protein after siRNA transfection; assay type: cell-based, human; settings: U87-MG and U251-MG cells transiently transfected, 24 hours
# Procedure: Western blotting and immunofluorescence microscopy. Whole cell lysates were prepared and Western blotting was performed as described (17). Antibodies used in specific experiments are described in the text or in corresponding figure legends. For immunofluorescence microscopy, IM-PHFA, grown on chamber slides, were probed with anti-AEG-1 and anti-calreticulin primary antibodies and FITC-conjugated anti-chicken and rhodamine-conjugated anti-rabbit secondary antibodies, respectively. Alternatively, IM-PHFA were loaded with Mito-Tracker (Molecular probes) and then immunocytochemistry was performed using anti-AEG-1 antibody and rhodamine-conjugated anti-chicken secondary antibody. Cells were visualized using a Zeiss confocal laser scanning microscope (LSM510) and a 100× objective.
# Construction of AEG-1 siRNA. The sequence (5′ AGCAGCCACCAGAGATTGA 3′) (SEQ ID NO:3) used for AEG-1 silencing corresponds to the 449-467 nucleotides of the AEG-1 ORF. The siRNA was constructed with Silencer™ siRNA kit according to manufacturer's protocol. A control scrambled siRNA was used to determine specificity of the inhibition and the sequence 5′ GGGTCGTCTA TAGGGATCGAT 3′(SEQ ID NO:10)
# Effect of inhibition of AEG-1 on anchorage independent growth of malignant glioma cells. U87-MG and U251-MG cells were transiently transfected with siRNA for the AEG-1 gene and control scrambled siRNA using Lipofectamine. […]
# U251-MG cells [6] = assay: Soft agar cloning efficiency; assay type: cell-based, human; settings: transient transfection vs control scrambled siRNA
# Procedure: (§4) Soft agar colony formation and Matrigel invasion assay. FM-516SV cells (2×10^5 cells/6-cm plate) plated the previous day were transfected with either pcDNA3.1, pcDNA3.1 AEG-1, T24 Ha-ras (20 μg each), or AEG-1/T24 Ha-ras (10+10 μg). Two days later, transfected cells were harvested by trypsinization and re-plated in soft agar (0.4%) overlaying 0.8% base agar. Two weeks later, colonies over ˜50 cells in soft agar were identified microscopically and counted. Soft agar colony formation assay was also performed with FM-516SV AEG-1 stable transfectants established by transfection of pcDNA3.1 AEG-1 and T24 Ha-ras and G418 selection.
# (§5) Effect of inhibition of AEG-1 on anchorage independent growth of malignant glioma cells. U87-MG and U251-MG cells were transiently transfected with siRNA for the AEG-1 gene and control scrambled siRNA using Lipofectamine. 24 hours after transfection 1×10^5 cells from the transfection mixture were replated to determine agar cloning efficiency. In parallel, cell extracts were prepared for western blot analysis.
# U87-MG cells [7] = assay: Soft agar cloning efficiency; assay type: cell-based, human; settings: transient transfection vs control scrambled siRNA
# Procedure: as §4, §5
# U251-MG cells [8] = assay: Matrigel invasion assay (Transwell); assay type: cell-based, human; settings: 72 h, vs control scrambled siRNA
# Procedure: (§6) Matrigel invasion assay. Cell were cultured, transfected and harvested essentially as described above for soft-agar colony formation assays. Cells were mixed with Matrigel and plated on […] pore-size tissue culture inserts. After 72 h or a pre-optimized time depending on the cell line, Matrigel was removed and the inserts were stained with Geimsa stain to enumerate the number of cells that had passed through the tissue culture insert membrane.
# (§7) Effect of inhibition of AEG-1 on invasiveness of malignant glioma cells. U87-MG and U251-MG cells were transiently transfected with siRNA for AEG-1 and with control scrambled siRNA using Lipofectamine. 24 hours after transfection cells were seeded in the upper compartment of a Transwell™ unit (Becton Dickinson) and then incubated for 72 h at 37° C. The lower compartment contained 0.5 ml of DMEM and 5% FBS. At the end of the invasion assay, the filters were removed, fixed, and stained.
# U87-MG cells [9] = assay: Matrigel invasion assay (Transwell); assay type: cell-based, human; settings: 72 h, vs control scrambled siRNA
# Procedure: as §6, §7
# AEG-1 promoter [10] = assay: AEG-1 promoter luciferase reporter in primary human fetal astrocytes; assay type: cell-based; settings: PHFA, 0.1 to 100 μM
# Text: as §1
# (§8) Other mediators of AEG-1 promoter activity. The HIV-Tat (Simm et al Virology 2002;294(1);1-12) and Nef (Lathi et al., Virology. 2003; 310(1):190-196) gene products were tested on the full length AEG-1 promoter at a plasmid expression vector concentration range of 50 to 800 ng/transfection point (FIG. 16). […] Thus, the AEG-1 promoter appears to be responsive to protein products produced by HIV infection of cells.
# [11] = tested on: glutamate transporter (EAAT2); settings: astrocytes; cited from earlier work
# AEG-1 promoter [12] = assay: AEG-1 promoter luciferase reporter co-transfected with HIV Tat or Nef expression constructs; assay type: cell-based, human; settings: plasmid expression vector 50 to 800 ng/transfection point
# Text: as §1, §8
compound,measurement,setting,value
COc1cccc(-c2cc(=O)c3ccccc3o2)c1N [PD 98059],AEG-1 promoter activity (luciferase),AEG-1 promoter [1]; 20 and 50 μM,dose dependent inhibition
same,AEG-1 promoter activity (luciferase),AEG-1 promoter [2]; 20 and 50 μM,dose dependent inhibition
same,"AEG-1 promoter activity, responsiveness to inhibitor",AEG-1 promoter [3],not responsive
TNFα,decrease of EAAT2 promoter activity,EAAT2 promoter,~2.5 fold
same,AEG-1 expression over control,AEG-1 [4],3 fold
C[S+]([O-])c1ccc(-c2nc(-c3ccncc3)c(-c3ccc(F)cc3)[nH]2)cc1 (centres unmarked) [SB 203580],AEG-1 promoter activity (luciferase),AEG-1 promoter [1]; 5 μM,inhibition of promoter activity was observed
same,AEG-1 promoter activity (luciferase),AEG-1 promoter [2]; 5 μM,inhibition of promoter activity was observed
"siRNA for AEG-1: siRNA with sequence 5′ AGCAGCCACCAGAGATTGA 3′ (SEQ ID NO:3), corresponds to nucleotides 449-467 of the AEG-1 ORF (listed as DNA, chemistry not given here)",AEG-1 protein knock down (Western blot),AEG-1 [5],efficient protein knock down
same,agar cloning efficiency,U251-MG cells [6],significantly inhibited
same,agar cloning efficiency,U87-MG cells [7],significantly inhibited
same,Matrigel invasion,U251-MG cells [8],significantly inhibited
same,Matrigel invasion,U87-MG cells [9],significantly inhibited
Nc1ncnc2c1nc(Br)n2[C@@H]1O[C@@H]2COP(=O)(O)O[C@H]2[C@H]1O [Bromo-cyclicAMP],AEG-1 promoter activity (luciferase),AEG-1 promoter [10],dose responsive stimulation
gp120: HIV-1 gp120 envelope protein used to treat astrocytes,decrease of EAAT2 promoter activity,EAAT2 promoter,~2.5 fold
same,AEG-1 expression over control,AEG-1 [4],3 fold
same,reduction in glutamate uptake,[11],~60%
Tat gene product: HIV-Tat gene product expressed from a co-transfected plasmid expression vector,stimulation of AEG-1 promoter activity,AEG-1 promoter [12],1.5 fold
